Data from patent publication US20090011442A1, “TB diagnostics based on mycobacterium tuberculosis excretory secretory antigens and their specific immunoglobulins” (priority 2007, published 2009).

Tested on: M. tb H37Ra bacilli
Assay type: cell-based, Mycobacterium tuberculosis H37Ra

Row | Structure (SMILES) | MIC (mg/l)/Resistance Ratio [mg/L] | Resistance ratio
1 | CC[C@@H](CO)NCCN[C@@H](CC)CO [EMB, ethambutol] | >8 | 
2 | NNC(=O)c1ccncc1 [INH, isoniazid] | >1 | 
3 | NC(=O)c1cnccn1 [PZA] | >100 | 
4 | CO[C@H]1/C=C/O[C@@]2(C)Oc3c(C)c(O)c4c(O)c(c(/C=N/N5CCN(C)CC5)c(O)c4c3C2=O)NC(=O)/C(C)=C\C=C\[C@H](C)[C@H](O)[C@@H](C)[C@@H](O)[C@@H](C)[C@H](OC(C)=O)[C@@H]1C [RMP, rifampicin] | >64 | 
5 | [H]/N=C(/N)N[C@H]1[C@H](O)[C@@H](O)[C@H](O[C@@H]2O[C@@H](C)[C@](O)(C=O)[C@H]2O[C@@H]2O[C@@H](CO)[C@H](O)[C@@H](O)[C@@H]2NC)[C@@H](N/C(N)=N\[H])[C@@H]1O [SM, streptomycin] |  | ratio > 8
